In brackets after ≈: the same amount, converted by molar mass.
Experiments:
Assay type in all cases: physicochemical
[1] = Compression at a pressure of 1 ton, XRPD analysis; settings: hydraulic press, 2 minutes
Procedure: (§1) Sample after being powdered in a mortar and pestle is applied directly on a silicon plate holder. The X-ray powder diffraction pattern was measured with Philips X'Pert PRO X-ray powder diffractometer, equipped with Cu irradiation source=1.54184 Å (Ångström), X'Celerator (2.022° 2θ) detector. Scanning parameters: angle range: 3-40 deg., step size 0.0167, time per step 37 s, continuous scan.
A sample of LX9211 dihydrogen phosphate form SI was subjected to a pressure of 1 ton (Perkin Elmer Hydraulic Press, set to 1 tons).
A sample of LX9211 dihydrogen phosphate form S3 was subjected to a pressure of 1 ton (Perkin Elmer Hydraulic Press, set to 1 tons).
A sample of LX9211 camsylate form K1 was subjected to a pressure of 1 ton (Perkin Elmer Hydraulic Press, set to 1 tons).
A sample of LX9211 hemihydrogen phosphate form S5 was subjected to a pressure of 1 ton (Perkin Elmer Hydraulic Press, set to 1 tons).

[2] = Solubility in water and pH 4.5 buffer, HPLC; settings: 24 hours, 37±0.2° C.; for Solubility (mg/mL) pH 4.5: pH 4.5 buffer (USP)
Procedure: The solubilities of LX9211 dihydrogen phosphate forms S1 and S3 and LX9211 dihydrogen phosphate and urea, and LX9211 free base form A were determined in water and pH 4.5 buffer as follows:
About 80 mg of samples of the starting materials were weighed into 15 ml PP centrifuge tubes. 8 ml of appropriate buffer solution (pH 4.5 according to USP 35-NF 30 Buffer Solutions) or water was added. Tubes were stoppered and shaken at 160 rpm for 24 hours at 37±0.2° C. in an incubator shaker (Innova 4080, New Brunswick Scientific). Suspensions were filtered through 0.45 μm […] syringe filter (CHROMAFIL PTFE-45/25, Macherey-Nagel). Filtrates were sampled and concentration of the starting material was determined by HPLC according to corresponding standard.

[3] = Strong grinding and solvent drop grinding, XRPD analysis
Procedure: as §1
(§2) Samples of LX9211 dihydrogen phosphate form S1 were subjected to strong grinding and to solvent drop grinding in acetone, ethanol (96%), and 2-propanol). Grinding was carried out on the samples alone, or in the presence of the solvent. In these experiments, about 20 mg of the sample is placed in a mortar and ground with a pestle for 2 minutes. The solvent, when used, as added to the crystalline material before grinding, in a volume of 10 microliters. XRPD analysis performed on each of the samples after the grinding experiment, confirmed no change in the starting material (Table 4):
as §2, with “S3” for “S1”, “6):” for “4):”
as §2, with “camsylate” for “dihydrogen phosphate”, “K1” for “S1”, “8):” for “4):”
as §2, with “hemihydrogen” for “dihydrogen”, “S5” for “S1”, “10): […]” for “4):”

[4] = DVS water uptake; settings: at least up to 90% RH
[5] = 2-propanol 10 microliters, solvent drop grinding for 2 minutes
[6] = Acetone 10 microliters, solvent drop grinding for 2 minutes
[7] = Ethanol (96%) 10 microliters, solvent drop grinding for 2 minutes
[8] = No solvent, strong grinding in mortar for 2 minutes

Row | XRPD analysis after pressure [1] | Solubility (mg/mL) pH 4.5 [2] [mg/mL] | Solubility (mg/mL) water [2] [mg/mL] | XRPD analysis results after grinding [3, 5] | XRPD analysis results after grinding [3, 6] | XRPD analysis results after grinding [3, 7] | XRPD analysis results after grinding [3, 8] | hygroscopicity (DVS) [4] | water uptake (DVS) [4] | SMILES
1 | no polymorphic conversion | 13.8 | 25.0 | No polymorphic conversion | No polymorphic conversion | No polymorphic conversion | No polymorphic conversion |  |  | CC(C)C[C@](C)(N)COc1ccc(-c2ccnc(C(F)F)c2)nc1C(F)F [LX9211 dihydrogen phosphate form S3]
2 |  | 9.7 | 0.1 (≈ 259 µM) |  |  |  |  |  |  | CC(C)C[C@](C)(N)COc1ccc(-c2ccnc(C(F)F)c2)nc1C(F)F [LX9211 free base form A, (S)-1-((2′,6-bis(difluoromethyl)-[2,4′-bipyridin]-5-yl)oxy)-2,4-dimethylpentan-2-amine]

The next lines start with the compound.

Row | SMILES | XRPD analysis after pressure [1] | Solubility (mg/mL) pH 4.5 [2] [mg/mL] | Solubility (mg/mL) water [2] [mg/mL] | XRPD analysis results after grinding [3, 5] | XRPD analysis results after grinding [3, 6] | XRPD analysis results after grinding [3, 7] | XRPD analysis results after grinding [3, 8] | hygroscopicity (DVS) [4] | water uptake (DVS) [4]
3 | CC(C)C[C@](C)(N)COc1ccc(-c2ccnc(C(F)F)c2)nc1C(F)F [LX9211 dihydrogen phosphate form S1] | no polymorphic conversion | 8.1 | 25.0 | No polymorphic conversion | No polymorphic conversion | No polymorphic conversion | No polymorphic conversion |  | 
4 | CC(C)C[C@](C)(N)COc1ccc(-c2ccnc(C(F)F)c2)nc1C(F)F [LX9211 camsylate form K1] | no polymorphic conversion |  |  | No polymorphic conversion | No polymorphic conversion | No polymorphic conversion | No polymorphic conversion | non-hygroscopic | less than 0.1%
5 | CC(C)C[C@](C)(N)COc1ccc(-c2ccnc(C(F)F)c2)nc1C(F)F [LX9211 dihydrogen phosphate and urea form U1] |  | 16.4 | 24.4 |  |  |  |  |  | 
